In data set [1] the target is T1, Recombinant barley α-amylase isozyme 1 (AMY1) (Hordeum vulgare, UniProt P00693).
T1 construct: made in house
Kind of data set: Inhibition of barley α-amylase isozyme 1 activity towards DP17 amylose. In kind it is biochemical. The source says:
(§1) Porcine pancreatic α-amylase (PPA) and bovine serum albumin (BSA) were purchased from Sigma. Amylose EX-1 (DP17; average degree of polymerization 17) was purchased from Hayashibara Chemical Laboratories (Okayama, Japan). Recombinant barley α-amylase isozyme 1 (AMY1) was produced and purified as described.^23 An aliquot of the porcine pancreatic x-amylase (PPA) crystalline suspension (in ammonium sulfate) was dialyzed extensively against the assay buffer without BSA. The enzyme concentration was determined by aid of amino acid analysis as determined using an LKB model Alpha Plus amino acid analyzer. […] Six different final inhibitor concentrations were used in the range 1 μM-5 mM. The inhibitor was pre-incubated with enzyme for 5 min at 37° C. before addition of substrate.

The target of data set [2] is T2, porcine pancreatic α-amylase (PPA) (Sus scrofa, UniProt P00690).
T2 construct: purchased Sigma
T2 sequence (P00690 16-511): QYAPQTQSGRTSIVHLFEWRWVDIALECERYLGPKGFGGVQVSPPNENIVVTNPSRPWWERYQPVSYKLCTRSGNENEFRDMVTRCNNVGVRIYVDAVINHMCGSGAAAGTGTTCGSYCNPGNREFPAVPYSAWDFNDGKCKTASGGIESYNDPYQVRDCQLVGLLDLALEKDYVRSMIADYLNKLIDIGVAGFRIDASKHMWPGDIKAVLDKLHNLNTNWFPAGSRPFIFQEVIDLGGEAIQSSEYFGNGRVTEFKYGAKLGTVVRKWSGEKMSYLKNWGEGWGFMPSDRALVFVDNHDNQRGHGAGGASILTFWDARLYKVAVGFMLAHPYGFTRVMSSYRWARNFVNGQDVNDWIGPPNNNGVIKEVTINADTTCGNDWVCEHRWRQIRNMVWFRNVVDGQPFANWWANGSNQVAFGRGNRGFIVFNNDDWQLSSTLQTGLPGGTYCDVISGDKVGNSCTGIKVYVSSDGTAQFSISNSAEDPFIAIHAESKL
In words: Inhibition of porcine pancreatic α-amylase activity towards DP17 amylose. It counts as biochemical.
Excerpt: as §1

Data set [3] addresses T3, Human Pancreatic α-Amylase (HPA) (Homo sapiens, UniProt P04746).
T3 sequence (P04746 16-511): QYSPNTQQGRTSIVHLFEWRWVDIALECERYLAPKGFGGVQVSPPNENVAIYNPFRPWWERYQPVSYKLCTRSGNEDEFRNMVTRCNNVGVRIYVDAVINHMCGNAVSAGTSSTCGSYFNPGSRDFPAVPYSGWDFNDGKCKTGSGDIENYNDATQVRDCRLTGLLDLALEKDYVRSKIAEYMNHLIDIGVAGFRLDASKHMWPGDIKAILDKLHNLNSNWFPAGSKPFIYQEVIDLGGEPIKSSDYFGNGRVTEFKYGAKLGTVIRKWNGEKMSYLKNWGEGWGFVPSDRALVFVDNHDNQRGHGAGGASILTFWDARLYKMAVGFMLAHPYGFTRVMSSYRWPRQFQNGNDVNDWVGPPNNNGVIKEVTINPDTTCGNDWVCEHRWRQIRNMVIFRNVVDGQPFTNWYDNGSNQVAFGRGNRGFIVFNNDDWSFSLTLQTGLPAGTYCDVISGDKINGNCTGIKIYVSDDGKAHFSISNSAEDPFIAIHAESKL
Kind of data set: Human pancreatic α-amylase assay, hydrolysis of 2,4-Dinitrophenyl maltotrioside. In kind it is biochemical. The note with it: for Ki: n.a. = not active. On the procedure: These assays were performed with purified enzyme. The ability of candidate inhibitors to inhibit the hydrolysis of 2,4-Dinitrophenyl maltotrioside was monitored by UV-visible spectroscopy of the released 2,4-dinitrophenol.

Data set [4] has as its target T4, glucoamylase G2 form from Aspergillus niger (Aspergillus niger, UniProt P69328).
T4 construct: purchased Novo Nordisk, Bagsvaerd, Denmark
In words: Inhibition of glucoamylase G2-catalyzed hydrolysis of maltose. In kind it is biochemical. On the procedure: The glucoamylase G2 form from Aspergillus niger was purified from a commercial enzyme (Novo Nordisk, Bagsvaerd, Denmark) as described.^19,20 The initial rates of glucoamylase G2-catalyzed hydrolysis of maltose was tested with 1 mM maltose as substrate in 0.1 M sodium acetate pH 4.5 at 45° C. using an enzyme concentration of 7.0×10^−8 M and five inhibitor concentrations in the range 1 μm-5 mM. The effect of the inhibition on rates of substrate hydrolysis were compared for the different compounds.

The target of data set [5] is Maltase Glucoamylase (MGA) (Homo sapiens, UniProt O43451). Kind of data set: MGA activity in extracts of COS cells transfected with MGA5′ (maltase subunit) construct, maltose hydrolysis, glucose oxidase colorimetric assay. In kind it is biochemical. Set-up: COS cells transfected with MGA5′ (maltase subunit clone 10) construct were used; expressed in transfected cells; host or cells: COS cells. The note with it: for Ki MGA (Human intestinal maltase glucoamylase): only the order of magnitude of activity (nM, μM, mM) or n.a. = not active. On the procedure: In the assays, COS cells transfected with MGA5′ (maltase subunit clone 10) construct were used. Activity measurements were performed with cell extracts containing MGA. Maltose hydrolysis was monitored by measurement of the glucose released by a glucose oxidase colorimetric assay. Inhibition of this hydrolysis was measured as a reduction in OD reading.
Sequence of Maltase Glucoamylase (MGA) (O43451 356-737 limits assumed): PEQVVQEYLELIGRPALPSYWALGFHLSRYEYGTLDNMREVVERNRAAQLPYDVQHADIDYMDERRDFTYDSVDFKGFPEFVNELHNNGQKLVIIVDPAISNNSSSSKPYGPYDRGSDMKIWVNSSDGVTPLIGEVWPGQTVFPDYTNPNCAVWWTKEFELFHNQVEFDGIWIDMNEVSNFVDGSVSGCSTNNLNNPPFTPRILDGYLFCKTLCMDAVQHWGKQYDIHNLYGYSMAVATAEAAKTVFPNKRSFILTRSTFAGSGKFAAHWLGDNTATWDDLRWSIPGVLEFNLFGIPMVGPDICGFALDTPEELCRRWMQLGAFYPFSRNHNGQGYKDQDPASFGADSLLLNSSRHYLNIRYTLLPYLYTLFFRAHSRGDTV
In practice, an OD reading in the absence of the inhibitor was recorded, followed by a reading in the presence of the inhibitor. The percent reduction in OD reading upon administering a candidate inhibitor (see Table 11) was then correlated with a percent inhibition for a given concentration.

The test system of the next data set is Sprague-Dawley rats. In words: In vivo maltose gavage in catheterized rats: plasma glucose and insulin. On the set-up: species or system rat. The note with it: maltose gavage 1000 mg/kg with 25 mg/kg drug; for decrease of the 90 minute insulin AUC: versus Control. On the procedure: Five week old Sprague-Dawley rats were housed singly under a 12:12-h light-dark photoperiod and given free access to water and rat chow (Purina rodent chow). After one week of acclimation, chronic indwelling catheters were implanted.
Animals were anesthetized with a combination of Ketamine-Xylazine-Butorphanol (0.1 ml/100 g im). Analgesic (Butorphenol, 1 mg/kg sc) was administered following recovery from anesthesia and the following morning. Antibiotic was administered by one dose sc and in the drinking water for 4 days post-operative (Baytril, 5 mg/kg sc, Bayer, Toronto, Canada; Baytril, 50 mg/ml: 0.36 ml solution in 250 ml drinking water). A sterile catheter (Intramedic PE-50 with ˜3 cm beveled Silastic tip) was placed in the left carotid artery and the distal end of the catheter was tunneled subcutaneously, exteriorized, and anchored at the nape of the neck. The catheters were protected from chewing by a stainless steel tether connected to a swivel system which allowed free movement of the animal and easy access to the catheter by the investigator.
The animals were allowed to recover for 1 week. Experiments were performed on conscious, unrestrained animals that had been fasted overnight by removal of chow from the cage hoppers at 2100. At 0800 the following morning animals were weighed and Atropine (0.05 mg/kg sc) was administered as a […]. At baseline, animals were administered a bolus of maltose by oral gavage (1000 mg/kg body weight) with or without drug (25 mg/kg body weight for all agents). Blood samples (0.1 mL) were taken via the implanted carotid line at -15 and -5 min for the baseline and at 7, 15, 30, 60, 90, 120, 210, 300 min.
Blood samples were kept on ice in microcentrifuge tubes and then were centrifuged. The plasma was stored at −20° C. until it was assayed. Plasma volume was triple replaced with heparinized saline (10u/mL), but red blood cells were not reinfused. Plasma glucose was assayed with the glucose oxidase method (Trinder RAICHEM Division of Hemagen Diagnostics, Inc. San Diego, Calif.). Plasma insulin concentrations were measured by rat insulin ELISA (Crystal Chem INC, Downers Grove, Ill.). Six experiments were performed for each treatment (control, Blintol, Acarbose, Salacinol).
All data are presented as means±SE. The significance of changes in plasma glucose and insulin were tested by two-way repeated-measures analysis of variance and were performed with the Statistical Analysis System for Windows (version 6.3, SAS Institute, Cary, N.C.). AUCs were compared using unpaired t-tests.

The test system of data set [6] is maltase activity in biopsies with live intestinal cells. In words: Maltase activity in biopsies with live intestinal cells. In kind it is cell-based, human. The following applies: 5 μM concentration. The source says: • 1) It appears that Acarbose acts principally by inhibiting human pancreatic α-amylase (HPA) and the breakdown of starch.
Data set [7] is described as follows: Stability on storage in aqueous solution. In kind it is physicochemical.
Another data set has as its system sucrase. The following applies: cited from earlier work.
[8] abbreviates: read-out: Ki AMY1 (Barley α-amylase).
[9] abbreviates: read-out: Ki PPA (Porcine pancreatic α-amylase).

Counter-ions that a name gives are not always drawn. Like-named read-outs stand apart in the source and are kept apart here. Where only a bound is given, the exact number is not on record here.

In general, Ki refers to a measure of affinity in units of concentration, obtained from inhibition or displacement. Broadly, the IC50 is the point on the concentration scale where inhibition reaches its midpoint. By inhibition is commonly meant the change of the read-out against control, counted positive when it falls.

T4 sequence (P69328 other isoform, or with tags, fused parts or gaps): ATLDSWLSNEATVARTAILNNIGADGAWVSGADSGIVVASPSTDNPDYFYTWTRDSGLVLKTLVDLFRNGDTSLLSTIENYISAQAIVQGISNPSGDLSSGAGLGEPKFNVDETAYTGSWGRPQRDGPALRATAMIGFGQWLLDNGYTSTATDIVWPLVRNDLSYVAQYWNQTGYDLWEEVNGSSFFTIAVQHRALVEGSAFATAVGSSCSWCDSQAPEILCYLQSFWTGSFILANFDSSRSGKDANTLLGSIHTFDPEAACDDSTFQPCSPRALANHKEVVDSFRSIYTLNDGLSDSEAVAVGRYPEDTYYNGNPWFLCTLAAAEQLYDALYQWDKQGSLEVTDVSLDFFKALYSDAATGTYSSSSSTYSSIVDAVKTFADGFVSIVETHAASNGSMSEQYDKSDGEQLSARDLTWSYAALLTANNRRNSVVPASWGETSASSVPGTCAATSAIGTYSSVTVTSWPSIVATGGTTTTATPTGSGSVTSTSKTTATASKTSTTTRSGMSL
T1 sequence (P00693 25-438): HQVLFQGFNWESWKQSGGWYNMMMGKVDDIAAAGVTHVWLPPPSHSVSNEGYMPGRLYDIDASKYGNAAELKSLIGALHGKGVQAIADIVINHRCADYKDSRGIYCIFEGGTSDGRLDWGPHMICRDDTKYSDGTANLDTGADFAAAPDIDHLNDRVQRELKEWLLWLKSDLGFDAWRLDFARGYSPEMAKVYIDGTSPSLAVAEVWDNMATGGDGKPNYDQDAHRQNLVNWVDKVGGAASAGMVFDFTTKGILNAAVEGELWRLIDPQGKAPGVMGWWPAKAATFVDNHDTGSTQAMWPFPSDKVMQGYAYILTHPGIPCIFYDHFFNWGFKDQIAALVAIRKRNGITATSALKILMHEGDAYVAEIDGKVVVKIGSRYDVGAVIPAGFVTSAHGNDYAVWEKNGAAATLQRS

Take `O=S(=O)([O-])O[C@@H](CO)[C@H](O)C[S@+]1C[C@@H](O)[C@H](O)[C@H]1CO`: the Ki is 15 µM in data set [1] (setting [8]), 10 µM in [2] (setting [9]), 75 µM in data set [3] and 1710 µM in data set [4].

As for `O=S(=O)(O)O[C@@H](CO)[C@H](O)CN1C[C@@H](O)[C@H](O)[C@H]1CO`, the Ki in data set [1] (setting [8]) was > 5000 µM; in data set [2] (setting [9]), > 5000 µM; in data set [4] (read-out: Ki GA (Glucoamylase)) it was > 2500 µM. In addition, the “Ki MGA (Human intestinal maltase glucoamylase)” value (shortened to “Ki MGA”) in data set [5] was “mM”.

Consider `O=S(=O)(O)O[C@H](CO)[C@@H](O)CN1C[C@H](O)[C@@H](O)[C@@H]1CO`, for which the Ki is > 5000 µM in data set [1] (setting [8]), > 5000 µM in data set [2] (setting [9]), 400 µM in data set [3] and > 8000 µM in data set [4] (read-out: Ki GA (Glucoamylase)).

On to `O=S(=O)([O-])O[C@@H](CO)[C@H](O)C[Se@+]1C[C@@H](O)[C@H](O)[C@H]1CO`, for which the Ki in data set [1], in data set [2] and in [3] was > 5000 µM throughout. Also, in data set [5], the “Ki MGA” value is “nM”.

In the case of `O=S(=O)([O-])O[C@H](CO)[C@@H](O)C[S@@+]1C[C@@H](O)[C@H](O)[C@@H](O)C1`, in data set [3], the Ki was > 5000 µM.

In the case of `O=S(=O)([O-])O[C@H](CO)[C@@H](O)C[S@+]1C[C@@H](O)[C@H](O)[C@@H](O)C1`, in [3], the inhibition constant Ki was > 5000 µM. Besides, the “Ki MGA” value in data set [5] is listed as “mM”.

`O=S(=O)([O-])O[C@H](CO)[C@@H](O)C[Se+]1C[C@@H](O)[C@H](O)[C@@H](O)C1` (stereo partly drawn): in [3], the Ki was > 5000 µM.

For `O=S(=O)([O-])OC(CO)C(O)C[Se+]1CC(O)C(O)C1CO` [Blintol, 1,4-Dideoxy-1,4-[[(2S,3S)-2,4-dihydroxy-3-(sulfooxy)butyl]episelenoniumylidene]-D-arabinitol Inner Salt], in the data set on Sprague-Dawley rats, the “time at which insulin values were different from basal” value is 15 min, the “time at which plasma glucose returned to basal” value was determined as 60 min and the “decrease of the 90 minute insulin AUC” value came out at 53%. In the data set on Sprague-Dawley rats (mean ± SE, n=6), the “15 minute glucose excursion from basal” value was 29.3 ± 6.5 mg/dL. Besides, the “percent inhibition of maltase activity” value in data set [6] is reported as 50%. Moreover, the half-maximal inhibitory concentration (IC50) in data set [5] turned out to be 0.2 µM.

`O=S(=O)(O)O[C@H](CO)[C@@H](O)CN1C[C@H](O)[C@@H](O)[C@H](O)[C@H]1CO` [Compound 67b, 1,5-Dideoxy-1,5-[[N-(2R,RS)-2,4-dihydroxy-3-(sulfooxy)-butyl]iminoonium]-D-glucitol]: the “stability of the 3′-sulfate ester on storage” value in data set [7] (D2O/NaOD at pH>10, 2 days at ambient temperature) was “completely hydrolyzed”.

As to `O=S(=O)([O-])O[C@H]1[C@H](O)C(O)O[C@@H]1C[S@+]1C[C@@H](O)[C@H](O)[C@H]1CO` (stereo partly drawn) [Compound 101, 3-O-sulfoxy-5-deoxy-5-[1,4-dideoxy-1,4-episufoniumylidene-D-arabinitol]-α/β-D-arabinose inner salt], in [7] (aqueous solution, several days at ambient temperature), the “stability on storage in aqueous solution” value is on record as “unchanged”.

`O=S(=O)([O-])O[C@@H]([C@H](O)[C@H](O)[C@@H](O)CO)[C@H](O)C[S+]1C[C@@H](O)[C@H](O)[C@H]1CO` (stereo partly drawn) [Kotalanol]: the “inhibitory activity against sucrase (in words)” value in the data set on sucrase was “more potent inhibitory activity against sucrase than Salicinol and Acarbose”.

As for `O=S(=O)([O-])OC(CO)C(O)C[S+]1CC(O)C(O)C1CO` [Salacinol, 1,4-Dideoxy-1,4-[[(2S,3S)-2,4-dihydroxy-3-(sulfooxy)butyl]-episulfoniumylidene]-D-arabinitol Inner Salt, reference compound], in the data set on Sprague-Dawley rats, the “plasma glucose profile (in words)” value is reported as “significantly lower post-prandial plasma glucose”; the “plasma insulin profile (in words)” value is “significantly lower post-prandial plasma glucose and insulin concentrations”; the “time at which insulin values were different from basal” value amounted to 15 min; the “time at which plasma glucose returned to basal” value was determined as 60 min. Moreover, the “decrease of the 90 minute insulin AUC” value in the data set on Sprague-Dawley rats is 65%. In addition, in the data set on Sprague-Dawley rats (excursion above basal), the “glucose Area Under the Curve, 0-90 minutes (in words)” value was “slightly lower 90 minute AUC's than Acarbose”. Besides, in data set [1] (amylose DP17, pH 5.5, 37° C., read-out: Ki value, AMY1), the Ki came to 15 ± 1 µM. Moreover, the inhibition constant Ki in data set [2] (amylose DP17, pH 6.9, 37° C., read-out: Ki value, PPA) amounted to 10 ± 2 µM. In data set [6], the “percent inhibition of maltase activity” value is recorded as 13%. Also, in data set [3], the “inhibition of HPA (in words)” value is “inhibits both HPA and MGA”. For the same compound, the “inhibition of MGA (in words)” value in data set [5] was “inhibits both HPA and MGA”. For the same compound, the inhibition at 5 µM in [5] (read-out: percent inhibition of the breakdown of maltose) came out at 60%. This compound also yielded a Ki in data set [4] of 1700 µM.
